In BindingDB's records for doi:10.1016/j.bmcl.2010.10.018 (Merck Frosst Centre For Therapeutic Research, 2010):

Experiment: Antagonist activity at TP receptor in human platelet assessed as thromboxane A2- induced platelet aggregation

IC50: 19.4 µM
SMILES: C[C@@H](c1ccc(C(F)(F)F)cc1)n1c2c(c3cc(F)cc(S(C)(=O)=O)c31)CCC[C@@H]2CC(=O)O [2-((R)-6-fluoro-8-(methylsulfonyl)-9-((S)-1-(4-(trifluoromethyl)phenyl)ethyl)-2,3,4,9-tetrahydro-1H-carbazol-1-yl)acetic acid]
